In patent publication US10334859B2, “Method and pesticidal mixtures for controlling Pentatomidae pests” (BASF SE, priority 2014, dated 2019):
Read-outs that look alike come from different tables or passages of the source.

Experiments:
Phytophthora infestans = format: cell-based
Alternaria solani = format: cell-based
Leptosphaeria nodorum = format: cell-based
Botrytis cinerea = format: cell-based; conditions: concentration 4
Septoria tritici = format: cell-based
[1] = tested on: southern green stink bug (Nezara viridula); assay: Test 7: control of southern green stink bug on dipped Lima bean plants; format: in vivo; conditions: 50 ppm; mortality (sick + death insects) of second instar at 5 days
Protocol: Beauveria bassiana strain PPRI 5339 was at room temperature for one hour before use.
Seven days old Lima bean plants were dipped into each treatment. Once dried, plants were artificially infested with four second instar southern green stink bugs. Percentage of mortality (sick+ death insects) was evaluated at 5 days.

Pyricularia oryzae = format: cell-based
[2] = tested on: southern green stink bug (Nezara viridula); assay: Test 5: control of southern green stink bug, dipped green beans and bugs; conditions: 10 ppm

CCCCCCCCc1c(CC)nc2ncnn2c1N [Ametoctradin, ametoctradin]
Observed efficacy (Phytophthora infestans; 0.004 ppm): 0%

CO/N=C(/C1=NOCCO1)c1ccccc1Oc1ncnc(Oc2ccccc2Cl)c1F [Fluoxastrobin, fluoxastrobin]
Observed efficacy (Alternaria solani; concentration 0.25): 11%

CC1COC(Cn2cncn2)(c2ccc(Oc3ccc(Cl)cc3)cc2Cl)O1 (stereo not shown) [Difenoconazol, difenoconazole]
Observed efficacy (Leptosphaeria nodorum; concentration 1): 21%
Observed efficacy (Alternaria solani; concentration 1): 0%

CC1(C(=O)Nc2ccc(O)c(Cl)c2Cl)CCCCC1 [Fenhexamid, fenhexamid]
Observed efficacy (Alternaria solani; concentration 4): 46%

CCCN(CCOc1c(Cl)cc(Cl)cc1Cl)C(=O)n1ccnc1 [Prochloraz, prochloraz]
Observed efficacy (Botrytis cinerea): 39%
Observed efficacy (Septoria tritici; concentration 4): 49%

CON=C(C(=O)OC)c1ccccc1CON=C(C)c1cccc(C(F)(F)F)c1 [Trifloxystrobin, trifloxystrobin]
Observed efficacy (Septoria tritici; concentration 0.004): 7%
Observed efficacy (Septoria tritici; concentration 0.016): 67%

CC(C)(C)[C@]1(O)C[C@@H]2OC(=O)C[C@@]23C(=O)O[C@@H]2OC(=O)[C@H](O)[C@]213 [Bilobalide, (3aS,5aR,8aS,9R,10aR)-9-tert-butyl-8,9-dihydroxydihydro-9H-furo[2,3-b]furo[3′,2′;2,3]cyclopenta[1,2-c]furan-2,4,7(3H,8H)-trione]
Observed efficacy (Leptosphaeria nodorum; concentration 63): 24%
Observed efficacy (Phytophthora infestans; 0.063 ppm): 0%
Observed efficacy (Phytophthora infestans; 0.25 ppm): 4%
Observed efficacy (Phytophthora infestans; 1 ppm): 24%
Observed efficacy [1]: 33%
Observed efficacy (Pyricularia oryzae; concentration 4): 3%
Observed efficacy (Pyricularia oryzae; concentration 16): 1%
Observed efficacy (Pyricularia oryzae; concentration 63): 5%
Observed efficacy (Alternaria solani; concentration 16): 0%
Observed efficacy (Alternaria solani; concentration 63): 0%
Observed efficacy (Septoria tritici; concentration 1): 6%
Observed efficacy (Septoria tritici; concentration 4): 8%
Observed efficacy (Septoria tritici; concentration 16): 9%

Fc1ccc([C@]2(Cn3cncn3)O[C@H]2c2ccccc2Cl)cc1 (racemic) [Epoxiconazol, epoxiconazole]
Observed efficacy (Alternaria solani; concentration 0.25): 36%
Observed efficacy (Septoria tritici; concentration 0.25): 35%

CO/C=C(/C(=O)OC)c1ccccc1COc1cccc(C(F)(F)F)n1 [Picoxystrobin, picoxystrobin]
Observed efficacy (Alternaria solani; concentration 0.25): 39%

Cn1cc(C(=O)Nc2ccccc2-c2cc(F)c(F)c(F)c2)c(C(F)F)n1 [Fluxapyroxad, fluxapyroxad]
Observed efficacy [2]: 0%

C[C@@H]1C(=O)O[C@H]2C[C@@]34[C@H]5C[C@@H](C(C)(C)C)[C@]36[C@@H](OC(=O)[C@@H]6O)O[C@@]4(C(=O)O5)[C@]21O [Ginkgolide A]
Observed efficacy (Leptosphaeria nodorum; concentration 63): 18%
Observed efficacy (Alternaria solani; concentration 16): 0%
Observed efficacy (Alternaria solani; concentration 63): 0%
Observed efficacy (Septoria tritici; concentration 63): 16%

chlorothalonil
Observed efficacy (Leptosphaeria nodorum; concentration 1): 39%
Observed efficacy (Botrytis cinerea): 53%

COC(=O)N(OC)c1ccccc1COc1ccn(-c2ccc(Cl)cc2)n1 [Pyraclostrobin, pyraclostrobin]
Observed efficacy [2]: 0%
Observed efficacy (Septoria tritici; concentration 0.004): 59%
